Publication PMC4674085, “Towards Prebiotic Catalytic Amyloids Using High Throughput Screening” (PLoS ONE, 2015)
Ends that are not written are not given here.

Tests used:
[1] = Plate reader 4NPA hydrolysis kinetics of purified peptide amyloids at pH 7.3; assay type: biochemical; details: 4NPA hydrolysis, pH 7.3 HEPES with zinc(II), 20 μM purified peptide
Description: The reaction buffer consisted of the same buffer as the fibrillization buffer without ZnCl2 and with 1.33 mM 4NPA prepared from a 100 mM stock in CH3CN. The samples of the amyloid library were mixed 1:3 with the reaction buffer yielding 40 μM peptide and, when present 250 μM zinc(II). The absorbance measurements were performed in a BMG Pherastar platereader with a 400 nm band-pass filter (10 nm bandwidth) in 96-well Nunclon Delta surface plates or 384-well Greiner Bio-One non-bind black μclear plates.
The kinetics assays performed on the purified peptides were prepared similarly except that the peptide concentration was 20 μM in the reaction. Furthermore, the various substrate concentrations and replicate samples were randomly distributed over the plate to minimize systematic errors. Various 4NPA concentrations (i.e. 0.1 mM, 0.2 mM, 0.4 mM, 0.6 mM, 1.0 mM) were added from a 100 times stock so that the final CH3CN concentration was always 1%. The linear part of the hydrolysis activity was fit with an extinction coefficient of ε = 9700 M^-1cm^-1 and corrected for the background reaction rate of buffer alone (v bg = 5.0 × 10^-6 Ms^-1) to obtain the initial reaction rate v 0. The average of the initial reaction rates at each substrate concentration were then fit to the Michaelis-Menten type kinetics to obtain k cat, K M and k cat/K M always calculated per monomer peptide. The background reaction rate was obtained similarly using 5 replicates.

[2] = Time-dependent 4NPA hydrolysis rate during fibrillization; assay type: biochemical; details: 50 μM peptide, 50 mM HEPES pH 7.3, 0.5 mM ZnCl2, 1 mM 4NPA, derivative of A400
Description: For more direct evidence that the amyloid is the catalytically active state, we attempted to measure the catalysis rate during the aggregation of 35 in order to correlate the amyloid formation with an increase in hydrolytic activity. Since the aggregation is too fast to measure a steady-state hydrolysis rate, an instantaneous time-dependent rate of 4NPA hydrolysis was calculated from the derivative of the A400 measurements (Fig 3A). In parallel, an identical sample was monitored at 218 nm for the β-strand-typical ellipticity (Fig 3C). Note that the absorbance of 50 mM HEPES prevented the measurement of a full spectrum (190–260 nm) under the identical aggregation conditions, however when performed with 10 mM HEPES, the spectrum clearly indicates a move towards increasing β-structure upon mixing the peptide with buffer at pH 7.3 (Figure B in S1 File). […]
Fig 3 Parallel kinetics of fibrillization and hydrolysis activity. Kinetics of fibrillization measured by CD (c) matches the appearance of the 4NPA hydrolysis activity (a). a) A stock of 35 at 200 μM in 10 mM HCl was diluted to a final concentration of 50 μM into 50 mM HEPES pH 7.3 with 0.5 mM ZnCl2 and 1 mM 4NPA. After ca. 10 s mixing time, the hydrolysis of 4NPA was recorded every 1 s for 20 min at 400 nm and the first derivative of this signal (the instantaneous rate) is plotted as a function of time. […]

[3] = Circular dichroism (CD), secondary structure of aggregates; assay type: physicochemical; details: 50 μM peptide in 10 mM HCl, time-stable spectrum
[4] = Solubility of binary alternating Val/Ser peptides (supernatant vs precipitate, quantitated by total hydrolysis); assay type: physicochemical; details: 200 μM peptide, 50 mM HEPES buffer pH 7.3, fibrillization for 2 days
From the text: A high β-aggregation propensity is essential for a combinatorial peptide library in the form of amyloids. To satisfy this requirement we profited from the well-documented observation that in aqueous environments, binary alternating sequences of hydrophobic-hydrophilic residues are prone to oligomerize into amphipathic β-structures. In these structures, the hydrophobic residues are buried at the interface of two β-sheets, leaving the hydrophilic residues on the surface. In keeping with the theme of a prebiotic fold, we wanted to use the shortest peptides that still guaranteed a high percentage of amyloidogenic peptides in the library. […]
For peptides that contain Tyr the concentration of the peptide was measured by diluting a 3–5 mM DMSO stock of the peptide 20-fold into 10 mM HCl and quickly measuring the UV spectrum to minimize the potential for aggregation (ε276 = 1500 M^-1cm^-1). Peptide 36 was quantitated during purification by C18 reversed phase HPLC using a calculated extinction coefficient of ε214 = 13963 M^-1cm^-1. The quantification of the VS peptides in Table 1 and peptide 34 was performed by total hydrolysis in 6 M HCl at 160°C for 2 h. The hydrolyzed samples were analyzed by C18 reversed-phase and the amount of Val or Ile was calculated by comparing the chromatographic peak areas to amino acid samples of known quantity.

| Substance | k cat/K M ([1]; 0.1-1.0 mM 4NPA, 1% CH3CN, A400, Michaelis-Menten fit, per monomer peptide, triplicate (duplicate for 8, 27, 34, 35)) [M⁻¹ s⁻¹] | K M ([1]; Michaelis-Menten fit) [µM] | k cat ([1]; Michaelis-Menten fit, per monomer peptide) | activity of the monomeric peptide (by extrapolation to t = 0) [2] | CD spectrum in 10 mM HCl [3] | peptide in solution after centrifugation at 25,000 g [4] |
| --- | --- | --- | --- | --- | --- | --- |
| Ac-YVHVHVAV-NH2 [Peptide 35, Ac-YVHVHVAV-CONH2] | 7.38 ± 0.63 | 630 ± 100 | 0.463±0.039 10^-2s^-1 | not significantly above the background hydrolysis | mostly random coil | – |
| VSVSVSV-NH2 [VSVSVSV-CONH2] | – | – | – | – | – | less than 5% |
